Test results published in US20030045564A1, “Saururus chinensis extract for prevention and treatment of neurodegenerative disease” (priority 2000, published 2003).

Experiments:
[1] = test system: glutamate-insulted rat cortical cells; settings: previously patented neuroprotectant, comparison; cited from earlier work
[2] = test system: NO content released from glutamate-insulted rat cortical cells; test: Measurement of nitric oxide (nitrite in culture broth, Griess reagent); assay type: cell-based; settings: for Nitrite / Nitrite post-treatment: post-treatment; for Nitrite: control 75.5, glutamate-treated 145.7; for Nitrite post-treatment / Nitrite pre-treatment: control 70.5, glutamate-treated 165.9
Protocol: The content of nitrite isolated into culture broth from first cultured cortical cells was assayed by using Griess reagent by Dawson's method(Dawson V L, Brahbhatt H P, Mong J A and Dawson T M (1994) Expression of inducible nitric oxide synthase causes delayed neurotoxicity in primary neuronal-glial cortical cultures. Neuropharmacology 33: 1425-1430).

[3] = test system: glutamate-insulted rat cortical cells; test: Neuroprotection against glutamate-induced neurotoxicity, cell viability by MTT assay in primary cultured cortical cells; assay type: cell-based; set-up: neuroprotective activity (in words): dose or concentration left out as unconfirmed
Protocol: Primary cultures of mixed cortical cells containing both neuron and glia were prepared from fetal rats as described previously (Kim Y C, Kim S R, Markelonis G J and Oh T H (1998) Ginsenosides Rb1 and Rg3 protect cultured rat cortical cells from glutamate-induced neurodegeneration. J. Neurosci. Res. 53: 426-432).
The cortical cells were plated onto collagen-coated dishes at a density of 1×10^6 cells/ml. The cultured cells were grown in DMEM supplemented with 10% heat-inactivated fetal calf serum, 1 mM sodium pyruvate, 100 IU/ml pecicillin and 100 μg/ml streptomycin at 37° C. in a humidified atmosphere of 95% air/5% CO2. cultures were allowed to mature for 2 weeks before being used for experiments.
Total extract of S. chinensis, fraction and isolated materials were dissolved in DMSO(within final culture concentration, 0.1%) and diluted with distilled water and by passing the solution through Milliporemembrane(0.22 μm, Millex-GV, USA) to make sterile state. The solution was cultured by differentiating the concentration and dosed to neuron cells.
To culture broth of the cortical cells during being cultured, MTT(5 mg/ml) was added by 10% of the culture broth. The broth was cultured for more 3 hours. The formed formazan was dissolved by DMSO and was assayed absorption at 540 nm((Mosmann T (1983) Rapid colorimetric assay for cellular growth and survival: Application to proliferation and cytotoxicity assays. J. Immuno. Methods 65: 55-61)
The neuroprotective activity of these two aristolactam alkaloids against glutamate-induced toxicity was initially evaluated by a timed exposure to alkaloids before or after excitotoxic challenge. Some cultures were pretreated with alkaloids for one hr before a brief exposure (30 min) to glutamate, washed and maintained in DMEM for 24 hr in the absence of alkaloids (pre-treatment) (Table 3). Also, cultures were first exposed to glutamate for 30 min, washed and maintained in DMEM for 24 hr in the presence of alkaloids (post-treatment) (Table 4).
Cortical cells directly isolated from rat fetal were cultured for 14 days. The samples to be tested were treated at different concentrations to cultured cells. After one hour, neurotoxicity was induced by treating 100 μM of glutamate. After 24 hours, the survival cell rate were measured by MTT assay to determine neuroprotective activity of the samples.
Control is the value for primary cultures of rat cortical cells. Control value for MTT was 1.03±0.08 optical density (OD). Glutamate-treated is the value for primary cultures of rat cortical cells exposed to glutamate for 30 min. Glutamate-treated value for MTT was 0.58±0.02 OD.
Viability is calculated as 100×(OD of sample treated−OD of Glutamate-treated)/(OD of control−OD of Glutamate-treated).

catalase = test: Effect on activity of antioxidant enzyme catalase; assay type: cell-based, rat; settings: data not shown
SOD = test: Effect on activity of antioxidant enzyme SOD; assay type: cell-based, rat; settings: data not shown
GSH-px = test: Effect on activity of antioxidant enzyme GSH-px; assay type: cell-based, rat; settings: data not shown
[4] = test system: [Ca2+]i in glutamate-insulted rat cortical cells; test: Measurement of Ca2+ concentration in cells (Fura-2 AM); assay type: cell-based; settings: for [Ca2+]i: pre-treatment, control 75.5, glutamate-treated 425.4
[5] = test system: peroxide content on glutamate-insulted rat cortical cells; test: Cellular peroxide content in glutamate-injured cortical neurons; assay type: cell-based
[6] = both pre- and post-treatment paradigms

COc1ccc(/C=C/C(=O)O)cc1 [E-p-MCA, (E)-p-methoxycinnamic acid]
protective activity by treatment paradigm (in words) [1]: significant protective activity only in pre-treatment paradigm

N=C(NCCC[C@H](N)C(=O)O)N[N+](=O)[O-] [N^ω-nitro-L-arginine, reference compound]
Nitrite ([2]; 1.0 μM): 103.9 ± 3.5 nM | Nitrite ([2]; 10.0 μM): 88.5 ± 4.1 nM | Nitrite ([2]; 100.0 μM): 109.7 ± 1.9 nM

COc1cc2c3c(cc4ccccc4c3c1OC)NC2=O [aristolactam BII, 10-amino-3,4-methoxy-3-hydroxy-phenanthrene-1-carboxylic acid lactam]
Neuroprotection (% protection against glutamate-induced neurotoxicity) ([3]; post-treatment (right after 30 min glutamate insult), 0.1 μM): 58.5 ± 5.8 % | Neuroprotection (% protection against glutamate-induced neurotoxicity) ([3]; post-treatment (right after 30 min glutamate insult), 1.0 μM): 68.4 ± 3.5 % | Neuroprotection (% protection against glutamate-induced neurotoxicity) ([3]; post-treatment (right after 30 min glutamate insult), 10.0 μM): 47.8 ± 2.9 % | Neuroprotection (% protection against glutamate-induced neurotoxicity) ([3]; pre-treatment (1 hr prior to glutamate insult), 0.1 μM): 0.0 ± 7.8% | Neuroprotection (% protection against glutamate-induced neurotoxicity) ([3]; pre-treatment (1 hr prior to glutamate insult), 1.0 μM): 0.0 ± 3.2% | Neuroprotection (% protection against glutamate-induced neurotoxicity) ([3]; pre-treatment (1 hr prior to glutamate insult), 10.0 μM): 32.2 ± 0.8 % | protection from glutamate-induced neurotoxicity (in words) ([3]; pre-treatment paradigm): did not significantly protect | neuroprotective activity (in words) ([3]; throughout treatment paradigm): significant neuroprotective activity | Neuroprotection (% protection against glutamate-induced neurotoxicity) ([3]; throughout treatment, 0.1 μM): no effect | Neuroprotection (% protection against glutamate-induced neurotoxicity) ([3]; throughout treatment, 1.0 μM): 60.8 ± 2.1 % | Neuroprotection (% protection against glutamate-induced neurotoxicity) ([3]; throughout treatment, 10.0 μM): 52.2 ± 3.2 % | Nitrite ([2]; 0.1 μM): 87.0 ± 0.8 nM | Nitrite ([2]; 1.0 μM): 86.8 ± 2.2 nM | Nitrite ([2]; 10.0 μM): 103.2 ± 1.2 nM | NO content in cultures treated with glutamate plus compound (in words) ([2]; versus glutamate alone): increased only slightly | protective effect on activity of catalase (in words) (catalase): no significant protective effects | protective effect on activity of SOD (in words) (SOD): no significant protective effects | protective effect on activity of GSH-px (in words) (GSH-px): no significant protective effects

saurolactam-3-O-(E)-p-methoxycinnamate
Neuroprotection (% protection against glutamate-induced neurotoxicity) ([3]; Table 6, pre-treatment, 0.1 μM): 29.8 ± 8.2 % | Neuroprotection (% protection against glutamate-induced neurotoxicity) ([3]; Table 6, pre-treatment, 1.0 μM): 67.2 ± 9.6 % | Neuroprotection (% protection against glutamate-induced neurotoxicity) ([3]; Table 6, pre-treatment, 10.0 μM): 80.6 ± 9.5 % | Neuroprotection (% protection against glutamate-induced neurotoxicity) ([3]; Table 7, post-treatment, 0.1 μM): 62.1 ± 1.8 % | Neuroprotection (% protection against glutamate-induced neurotoxicity) ([3]; Table 7, post-treatment, 1.0 μM): 70.3 ± 3.2 % | Neuroprotection (% protection against glutamate-induced neurotoxicity) ([3]; Table 7, post-treatment, 10.0 μM): 48.2 ± 1.5 % | neuroprotective activity on glutamate-induced neurotoxicity (in words) [3, 6]: significant neuroprotective activity | block of NO synthesis (in words) [2, 6]: significantly block | Nitrite post-treatment ([2]; 0.1 μM): 143.6 ± 5.7 nM | Nitrite post-treatment ([2]; 1.0 μM): 97.5 ± 26.3 nM | Nitrite post-treatment ([2]; 10.0 μM): 118.1 ± 2.1 nM | Nitrite pre-treatment ([2]; 0.1 μM): 125.0 ± 6.8 nM | Nitrite pre-treatment ([2]; 1.0 μM): 74.8 ± 6.5 nM | Nitrite pre-treatment ([2]; 10.0 μM): 71.4 ± 2.1 nM | block of increase of intracellular Ca2+ induced by excess glutamate (in words) [4]: successfully block | [Ca2+]i ([4]; 0.1 μM): 233.3 ± 14.9 nM | [Ca2+]i ([4]; 1.0 μM): 145.8 ± 26.3 nM | [Ca2+]i ([4]; 10.0 μM): 96.1 ± 4.1 nM | cellular peroxide level (in words) [5]: reduced
